Laboratory results taken from patent publication US9566269B2, “Modified release compositions of epalrestat or a derivative thereof and methods for using the same” (Bionevia Pharmaceuticals Inc., priority 2011, dated 2017).

Key:
[1] = Ionization study in different pH environments (calculated from pKa); format: physicochemical
Procedure: The percentage ionization of Epalrestat in different pH environments of the human gastrointestinal tract was calculated based on the pKa value (3.61).

[2] = cited from earlier work
[3] = cited from earlier work; remark: listed apart in the source
[4] = immediate release 50 mg dosage, healthy adult volunteers

C/C(C=C1SC(=S)N(CC(=O)O)C1=O)=C\c1ccccc1 (single isomer, unassigned) [epalrestat, 5-[(1Z,2E)-2-methyl-3-phenylpropenylidene]-4-oxo-2-thioxo-3-thiazolidineacetic acid]
% Ionized ([1]; pH 1.2): 0%
% Ionized ([1]; pH 3.0): 20.0%
% Ionized ([1]; pH 3.5): 44.0%
% Ionized ([1]; pH 4.0): 71.0%
% Ionized ([1]; pH 4.5): 89.0%
% Ionized ([1]; pH 5.0): 96.0%
% Ionized ([1]; pH 5.5): 99.0%
% Ionized ([1]; pH 6.0): 100.0%
% Ionized ([1]; pH 6.8): 100.0%
pKa value [2]: 3.61
Plasma level ([3]; 4 hours after administration of 50 mg tablets of epalrestat free acid): 370 ng/mL
Cmax [3, 4]: 3900 ng/mL
t1/2 [3, 4]: 1.8 h
tmax [3, 4]: 1.05 h
total AUC0-∞ [3, 4]: 6400 ng·h/mL
